Values of other authors in patent publication US9554998B1, “Composition of analgesic bioadhesive healing microspheres” (priority 2015, dated 2017).

Legend:
[1] = applied for 30 minutes to the forearms of healthy volunteers
[2] = single patient

FC(F)(F)C(Cl)Br (centres unmarked) [halothane]
local analgesic effect [1]: slight local analgesic effect

FC(F)OC(Cl)C(F)(F)F (centres unmarked) [isoflurane]
local analgesic effect [1]: slight local analgesic effect

FCOC(C(F)(F)F)C(F)(F)F [sevoflurane, fluoromethyl 2.2.2-trifluoro-1-(trifluoromethyl)ethyl ether]
analgesic control ([2]; liquid sevoflurane directly on to the ulcer bed): immediate, intense and long-lasting analgesia | time the ulcer took to heal ([2]; liquid sevoflurane on the ulcer bed): 16 days | local analgesic effect [1]: slight local analgesic effect
